Values quoted from earlier work as cited in patent US20220142214A1, “SYNERGISTIC COMPOSITION OF FOOD-BASED AND ORGANIC NUTRIENTS AND METHODS FOR USE AND MANUFACTURE” (priority 2020, published 2022).
Like-named read-outs stand apart in the source and are kept apart here.

Legend:
[1] = tested on: B16-BL6 cells; settings: for tumor growth: intraperitoneal administration at time of i.m. injection of B16-BL6 cells
[2] = tested on: B16-BL6 cells; settings: dose-dependent
[3] = intraperitoneal administration, syngeneic mice

Row | Structure (SMILES) | tumor growth [1] | toxicity [1, 3] | number of B16-BL6 colonies in the lungs [2] | toxicity ([1]; mouse, in vivo, ip)
1 | O=C(O[C@@H]1Cc2c(O)cc(O)cc2O[C@@H]1c1cc(O)c(O)c(O)c1)c1cc(O)c(O)c(O)c1 [EGCG, Epigallocathechin-3-gallate] | significant, dose-dependent delay of tumor growth | without toxicity | – | –
2 | O=c1cc(-c2ccc(O)cc2)oc2cc(O)cc(O)c12 [apigenin] | significant, dose-dependent delay of tumor growth | without toxicity | significantly decreased | –
3 | O=c1c(O)c(-c2ccc(O)c(O)c2)oc2cc(O)cc(O)c12 [quercetin] | significant, dose-dependent delay of tumor growth | – | significantly decreased | without toxicity
4 | Oc1ccc(C=Cc2cc(O)cc(O)c2)cc1 [resveratrol] | significant, dose-dependent delay of tumor growth | – | – | without toxicity
5 | CC/C(=C(\c1ccccc1)c1ccc(OCCN(C)C)cc1)c1ccccc1 [tamoxifen] | significant, dose-dependent delay of tumor growth | – | significantly decreased | without toxicity
